PMC8389614, “A Comparison of Acute Pharmacological Effects of Methylone and MDMA Administration in Humans and Oral Fluid Concentrations as Biomarkers of Exposure” (Biology, 2021)

Experiments:
healthy poly-drug users [1] = assay: Physiological effects (non-invasive SBP, DBP, HR, cutaneous temperature) after oral self-administration; type: in vivo, humans; design: key to HR Dunnet’s Test: “a” (times 0–1 h); “b” (times 0–2 h); “c” (times 0–4 h); not significant (NS); details: for DBP AUC0–4h / DBP Emax / HR AUC0–4h / HR Emax / SBP AUC0–4h / SBP Emax / Variation in cutaneous temperature: oral; for DBP AUC0–4h / DBP Emax / HR AUC0–4h / HR Emax / SBP AUC0–4h / SBP Emax: methylone 100–300 mg n=8, MDMA 75–100 mg n=6, baseline-adjusted, mean ± SD; for Variation in cutaneous temperature: methylone 100–300 mg, MDMA 75–100 mg, versus baseline, 0–4 h; for DBP Dunnet’s Test / HR Dunnet’s Test / SBP Dunnet’s Test: time points significantly different from baseline
Description: (§1) The study was designed as a non-controlled prospective observational study in a naturalistic setting with methylone and MDMA self-administration. The methodology, including procedures and evaluations, coincides with previous observational–naturalistic studies aimed at evaluating the acute effects of other NPS [38, 39, 40]. Six subjects (5 M, 1 F) self-administered MDMA and 8 subjects (5 M, 3 F) self-administered methylone. Each subject participated only in one session. Participants brought their own substance obtained from an unknown source, which was tested by Energy Control, a harm reduction organization that provides a drug checking service to drug users. Pills containing methylone and MDMA were analyzed by gas chromatography associated with mass spectrometry (GC/MS), a technique that traces the presence of the most frequent drugs of abuse, such as MDMA, cocaine, heroin, amphetamine and methamphetamine, LSD, and multiple NPS (methylone, mephedrone, and other synthetic cathinones, synthetic cannabinoids, tryptamines, among others).
(§2) In both sessions, participants selected the dose of methylone or MDMA according to their previous drug use experience. Doses of methylone could be selected from a range (75–300 mg) that was previously defined according to the consulted literature. The WHO Expert Committee on Drug Dependence (Thirty-Sixth Meeting, Geneva, Switzerland, 16–20 June 2014) established that 60 mg of methylone was the threshold dose and doses over 250 mg were often related to very strong activity. Some users have reported uses of 300 mg of methylone as a common dose [www.erowid.org] (accessed on 15 June 2021). The mean of the selected doses of MDMA was 87.50 mg (3 subjects ingested 75 mg (2 males and 1 female), 3 males 100 mg). In the other study session, methylone doses ranged from 100 to 300 mg, with a mean of 187.50 mg. Based on their dose selection, 1 male ingested 100 mg, 2 subjects 150 mg (1 male and 1 female), 4 subjects 200 mg (2 males and 2 females), and 1 male 300 mg.
(§3) The sessions were conducted in a naturalistic setting. Participants were allowed to talk, read, listen to music, or play games, except during the evaluation times. However, they were asked to refrain from talking about the effects of the substance. All the subjects were evaluated simultaneously at baseline, 1, 2, and 4 h after administration of methylone or MDMA, which occurred approximately at 16:00 h. At each time point, evaluations were followed in a specific order: physiological effects, oral fluid collection, and subjective effects scales and questionnaires.
Non-invasive systolic blood pressure (SBP), diastolic blood pressure (DBP), and heart rate (HR) were measured with subjects in the sitting position, using an automatic Omron monitor at baseline, 1, 2, and 4 h (h) after self-administration. Cutaneous temperature was determined at the same time points.
(§4) Vital signs (SBP, DBP, and HR) and subjective effects (VAS, ARCI, and VESSPA-SSE) were baseline-adjusted. Maximum effects and the time in which maximum effects appeared were determined, and the area under the curve (AUC0–4h) was calculated with the trapezoidal rule.
(§5) Thirdly, to find possible significant changes from baseline, a Dunnett multiple comparison test was conducted to compare each time point with baseline in both drug conditions (0–1 h, 0–2 h, 0–4 h).

healthy poly-drug users [2] = assay: Subjective effects, VESSPA-SSE questionnaire; type: in vivo, humans; design: key to VESSPA PS Dunnet’s Test: “a” (times 0–1 h); “b” (times 0–2 h); “c” (times 0–4 h); not significant (NS); details: for VESSPA ACT (activity and energy) AUC0–4h / VESSPA ACT (activity and energy) Emax / VESSPA ANX (psychosomatic anxiety) AUC0–4h / VESSPA ANX (psychosomatic anxiety) Emax / VESSPA PS (psychotic symptoms) AUC0–4h / VESSPA PS (psychotic symptoms) Emax / VESSPA S (sedation) AUC0–4h / VESSPA S (sedation) Emax / VESSPA SOC (pleasure and sociability) AUC0–4h / VESSPA SOC (pleasure and sociability) Emax: oral, methylone 100–300 mg n=8, MDMA 75–100 mg n=6, baseline-adjusted, mean ± SD; for VESSPA ACT Dunnet’s Test / VESSPA ANX Dunnet’s Test / VESSPA PS Dunnet’s Test / VESSPA S Dunnet’s Test / VESSPA SOC Dunnet’s Test: time points significantly different from baseline
Description: as §1, §2, §3
Subjective effects were evaluated at baseline, 1, 2, and 4 h after self-administration using visual analogue scales (VAS), the Addiction Research Center Inventory (ARCI), and the Evaluation of Subjective Effects of Substances with Abuse Potential questionnaire (VESSPA-SSE).
The VESSPA-SSE is a questionnaire sensitive to subjective effects related to stimulants such as MDMA that includes six subscales: sedation (S), psychosomatic anxiety (ANX), changes in perception (CP), pleasure and sociability (SOC), activity and energy (ACT), and psychotic symptoms (PS).
as §4, §5

[3] = Oral fluid concentrations (Salivette, LC-MS/MS); type: in vivo, humans; details: both sexes, human; for Cmax / AUC(0-t): methylone 100–300 mg n=8, MDMA 75–100 mg n=6, mean ± SD; for AUC(0-t): read-out: Oral fluid AUC0–4 h; for Tmax: methylone 100–300 mg n=8, MDMA 75–100 mg n=6, median (min–max)
Protocol: In both sessions, oral fluid samples were collected with Salivette to determine methylone and MDMA concentrations in oral fluid at baseline, 1 h, 2 h, and 4 h. All samples were centrifuged after collection and stored frozen at −20 °C until analysis. Methylone and MDMA oral fluid concentrations were quantified via liquid chromatography tandem–mass spectrometry (LC–MS/MS).
For oral fluid concentrations of MDMA and methylone, only a descriptive analysis was presented showing main pharmacokinetics data such as the maximum concentration (Cmax), the time required to reach maximum concentrations (Tmax), and AUC0–4h. These parameters were calculated using the Pharmacokinetic Functions for Microsoft Excel (Joel Usansky, Atul Desai, and Diane Tang-Liu, Department of Pharmacokinetics and Drug Metabolism, Allergan, Irvine, CA, USA).

5-HT2C receptors = system: 5-HT2C receptors; design: method as in PMID 25237120, PMID 23583454; details: cited from earlier work

With `CNC(C)Cc1ccc2c(c1)OCO2` (stereo not shown) [MDMA, 3,4-methylenedioxymethamphetamine] the “DBP AUC0–4h” value (healthy poly-drug users [1]) was 78.92 ± 30.33, the “DBP Emax” value (healthy poly-drug users [1]) was 32.17 ± 11.29 mmHg and the “HR AUC0–4h” value (healthy poly-drug users [1]) was 23.83 ± 38.73. The “HR Emax” value (healthy poly-drug users [1]) was 10.67 ± 18.22 bpm, the “SBP AUC0–4h” value (healthy poly-drug users [1]) was 107.67 ± 44.34 and the “SBP Emax” value (healthy poly-drug users [1]) was 46.83 ± 20.83 mmHg. For the same compound, the “Variation in cutaneous temperature” value (healthy poly-drug users [1]) was “Neither of the substances caused significant variations”, the “DBP Dunnet’s Test” value (healthy poly-drug users [1]) was “a, b” and the “HR Dunnet’s Test” value (healthy poly-drug users [1]) was “NS”. For the same compound, the “SBP Dunnet’s Test” value (healthy poly-drug users [1]) was “a, b”, the “VESSPA ACT (activity and energy) AUC0–4h” value (healthy poly-drug users [2]) was 32.58 ± 15.71 and the “VESSPA ACT (activity and energy) Emax” value (healthy poly-drug users [2]) was 13.33 ± 4.84 score. The “VESSPA ANX (psychosomatic anxiety) AUC0–4h” value (healthy poly-drug users [2]) was 16.50 ± 8.82, the “VESSPA ANX (psychosomatic anxiety) Emax” value (healthy poly-drug users [2]) was 6.67 ± 4.37 score and the “VESSPA PS (psychotic symptoms) AUC0–4h” value (healthy poly-drug users [2]) was 2.25 ± 2.36. The “VESSPA PS (psychotic symptoms) Emax” value (healthy poly-drug users [2]) was 1.33 ± 1.21 score, the “VESSPA S (sedation) AUC0–4h” value (healthy poly-drug users [2]) was 5.92 ± 6.09 and the “VESSPA S (sedation) Emax” value (healthy poly-drug users [2]) was 2.83 ± 2.23 score. For the same compound, the “VESSPA SOC (pleasure and sociability) AUC0–4h” value (healthy poly-drug users [2]) was 38.67 ± 17.84, the “VESSPA SOC (pleasure and sociability) Emax” value (healthy poly-drug users [2]) was 14.50 ± 5.96 score and the “VESSPA ACT Dunnet’s Test” value (healthy poly-drug users [2]) was “a, b”. For the same compound, the “VESSPA ANX Dunnet’s Test” value (healthy poly-drug users [2]) was “a, b”, the “VESSPA PS Dunnet’s Test” value (healthy poly-drug users [2]) was “NS” and the “VESSPA S Dunnet’s Test” value (healthy poly-drug users [2]) was “a, c”. The “VESSPA SOC Dunnet’s Test” value (healthy poly-drug users [2]) was “a, b”, the Cmax [3] was 2940 ± 2760 ng/mL and the AUC(0-t) [3] was 6590 ± 5230 ng·h/mL. The Tmax [3] was 2 h and the “Activity at 5-HT2C receptors” value (5-HT2C receptors) was “partial agonist rather than an antagonist”.
In the case of `CNC(C)C(=O)c1ccc2c(c1)OCO2` (stereo not shown) [Methylone, 3,4-methylenedioxymethcathinone], the “DBP AUC0–4h” value (healthy poly-drug users [1]) is reported as 55.19 ± 31.02, the “DBP Emax” value (healthy poly-drug users [1]) is reported as 19.63 ± 13.96 mmHg and the “HR AUC0–4h” value (healthy poly-drug users [1]) is reported as 52.06 ± 39.16. For the same compound, the “HR Emax” value (healthy poly-drug users [1]) was 20.50 ± 19.78 bpm, the “SBP AUC0–4h” value (healthy poly-drug users [1]) was 80.81 ± 42.89 and the “SBP Emax” value (healthy poly-drug users [1]) was 31.25 ± 14.77 mmHg. The “Variation in cutaneous temperature” value (healthy poly-drug users [1]) was “Neither of the substances caused significant variations”, the “DBP Dunnet’s Test” value (healthy poly-drug users [1]) was “a, b, c” and the “HR Dunnet’s Test” value (healthy poly-drug users [1]) was “a”. The “SBP Dunnet’s Test” value (healthy poly-drug users [1]) was “a, b, c”, the “VESSPA ACT (activity and energy) AUC0–4h” value (healthy poly-drug users [2]) was 24.44 ± 17.87 and the “VESSPA ACT (activity and energy) Emax” value (healthy poly-drug users [2]) was 9.75 ± 6.25 score. The “VESSPA ANX (psychosomatic anxiety) AUC0–4h” value (healthy poly-drug users [2]) was 17.94 ± 11.17, the “VESSPA ANX (psychosomatic anxiety) Emax” value (healthy poly-drug users [2]) was 7.50 ± 4.69 score and the “VESSPA PS (psychotic symptoms) AUC0–4h” value (healthy poly-drug users [2]) was 5.63 ± 5.58. For the same compound, the “VESSPA PS (psychotic symptoms) Emax” value (healthy poly-drug users [2]) was 2.63 ± 2.20 score, the “VESSPA S (sedation) AUC0–4h” value (healthy poly-drug users [2]) was 7.06 ± 6.45 and the “VESSPA S (sedation) Emax” value (healthy poly-drug users [2]) was 3.38 ± 2.50 score. For the same compound, the “VESSPA SOC (pleasure and sociability) AUC0–4h” value (healthy poly-drug users [2]) was 31.31 ± 25.40, the “VESSPA SOC (pleasure and sociability) Emax” value (healthy poly-drug users [2]) was 12.25 ± 8.31 score and the “VESSPA ACT Dunnet’s Test” value (healthy poly-drug users [2]) was “a, b”. The “VESSPA ANX Dunnet’s Test” value (healthy poly-drug users [2]) was “b, c”, the “VESSPA PS Dunnet’s Test” value (healthy poly-drug users [2]) was “b” and the “VESSPA S Dunnet’s Test” value (healthy poly-drug users [2]) was “b, c”. The “VESSPA SOC Dunnet’s Test” value (healthy poly-drug users [2]) was “a, b”, the Cmax [3] was 15500 ng/mL and the AUC(0-t) [3] was 40600 ng·h/mL. The Tmax [3] was 2 h and the “Activity at 5-HT2C receptors” value (5-HT2C receptors) was “weak antagonist effects”.
